Where two headings read alike, the source gives them in different places. Where a SMILES comes first, the peptide text is derived from it. Bridges are numbered along the chain shown (N, C = ends). [ ]: non-standard residue; d: D form. Tyr(3-tBu) = CC(C)(C)c1cc(C[CH](N)C(=O)O)ccc1O; βAla = NCCC(=O)O
What was measured:
[1] = amide bond, BOP, 25.0 °C
[2] = amide bond, 25.0 °C
[3] = tested on: motilin-induced contraction of a sample of the longitudinal muscle of the duodenum; experiment: Contraction inhibition test: motilin-induced contraction of rabbit longitudinal duodenal muscle; assay type: cell-based; details: Oryctolagus cuniculus; concentration-dependent contraction induced by motilin; rabbit duodenal specimen in Krebs solution at 28° C.; read-out: Contraction inhibition test pA2 (converted)
Experimental: The effect of compounds of the present invention on motilin-induced contraction of a sample of the longitudinal muscle of the duodenum extracted from a rabbit was tested as follows.
A duodenal specimen (5×15 mm) extracted from a killed rabbit was suspended in the direction of the longitudinal muscle in an incubator at 28° C. filled with Krebs solution (10 ml organ bath). A mixed gas (95% O2, 5% CO2) was continuously passed through the Krebs solution and the contraction of the duodenal specimen was isotonically recorded (under a load of 1 g) via an isotonic transducer (ME-3407, ME Commercial, Tokyo, Japan). The extent of contraction of the duodenal specimen was expressed as a percentage to the contraction induced by acetylcholine at a concentration of 10^−4 M.
The effect of the compounds synthesized in Examples 1–8 and 10 on the concentration-dependent contraction induced by motilin added into the incubator was determined to calculate pA2 (see “Drug receptors” edited by Takayanagi, published by Nanzando). As a comparative example, the results of the compound of formula (5) are also shown.

motilin receptors = target: T1, motilin receptors (Oryctolagus cuniculus, UniProt G1T803); experiment: Motilin receptor binding test (125I motilin, rabbit duodenum protein solution); details: concentration inhibiting 50% of specific binding of 25 pM 125I motilin; rabbit duodenum homogenate, 2 hours at 25° C.
T1 construct: A protein solution was prepared by homogenizing the duodenum isolated from a killed rabbit; from tissue; host or cells: rabbit duodenum, mucosa stripped, homogenate
Experimental: Motilin receptor binding activities of compounds of the present invention were tested as follows [Vantrappen et al., Regul.
A protein solution was prepared by homogenizing the duodenum isolated from a killed rabbit in 50 mM Tris after stripping the mucosa. […] The difference between the radioactivity of the protein solution incubated alone and the radioactivity of the protein solution incubated with a large excess of motilin (10^−7 M) was recorded as specific binding of motilin to motilin receptors.

[4] = 14-membered ring, BOP, DMF/pyridine 1:1, 9.9 mM, 2 steps

T1 sequence (G1T803 1-400): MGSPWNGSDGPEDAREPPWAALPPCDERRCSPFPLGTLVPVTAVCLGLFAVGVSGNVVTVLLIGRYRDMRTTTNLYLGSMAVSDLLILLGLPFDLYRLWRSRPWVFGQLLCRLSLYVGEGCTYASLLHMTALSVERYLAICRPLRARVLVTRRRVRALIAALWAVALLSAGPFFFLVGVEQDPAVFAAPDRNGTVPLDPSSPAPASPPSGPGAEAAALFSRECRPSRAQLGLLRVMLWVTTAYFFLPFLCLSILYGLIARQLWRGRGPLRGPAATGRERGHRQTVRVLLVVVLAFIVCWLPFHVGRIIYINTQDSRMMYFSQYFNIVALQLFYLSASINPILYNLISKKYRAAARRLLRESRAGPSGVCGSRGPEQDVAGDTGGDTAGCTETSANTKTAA

With CC(=O)N1CCCC[C@H](N(C)C(=O)[C@H](Cc2ccc(F)cc2)NC(=O)OC(C)(C)C)C(=O)N[C@@H](Cc2ccc(O)c(C(C)(C)C)c2)C(=O)NCCC1 the ring closure, yield of all isomers ([1]; from CC(=O)N(CCCN)CCCC[C@@H](C(=O)N[C@@H](Cc1ccc(O)c(C(C)(C)C)c1)C(=O)O)N(C)C(=O)[C@H](Cc1ccc(F)cc1)NC(=O)OC(C)(C)C, DMF, 9.87 mM, 18.0 h) was 55%.

For CC(C)(C)c1cc(C[C@@H]2NC(=O)C(N)CCCCNC(=O)CCNC2=O)ccc1O (stereo partly drawn), the ring closure, isolated yield ([2]; from Z-Lys-Tyr(3-tBu)-bAla-OH?, 14-membered ring, BOP/pyridine, MeCN/pyridine 1:1, 10.2 mM, 3 steps) was 90%.

With CC(C)(C)c1cc(C[C@@H]2NC(=O)[C@@H](N)CCCCNC(=O)CCNC2=O)ccc1O the ring closure, yield of all isomers ([1]; from CC(C)(C)OC(=O)CCNC(=O)[C@H](Cc1ccc(O)c(C(C)(C)C)c1)NC(=O)[C@H](CCCCNC(=O)OC(C)(C)C)NC(=O)OCc1ccccc1, acetonitrile, 10.2 mM, 21.0 h, 3 steps) was 90%.

With CN(C(=O)[C@H](Cc1ccc(F)cc1)NC(=O)OC(C)(C)C)[C@H]1CCCCNC(=O)CCCNC(=O)[C@H](Cc2ccc(O)c(C(C)(C)C)c2)NC1=O the ring closure, yield of all isomers ([1]; from CN(C(=O)[C@H](Cc1ccc(F)cc1)NC(=O)OC(C)(C)C)[C@@H](CCCCN)C(=O)N[C@@H](Cc1ccc(O)c(C(C)(C)C)c1)C(=O)NCCCC(=O)O, DMF, 10.1 mM, 16.0 h) was 82%.

Compound CN(C(=O)[C@H](Cc1ccc(F)cc1)NC(=O)OC(C)(C)C)[C@H]1CCCCNC(=O)CCNC(=O)[C@H](Cc2ccc(O)c(C(C)(C)C)c2)N(C)C1=O has a ring closure, yield of all isomers ([1]; from CN(C(=O)[C@H](Cc1ccc(F)cc1)NC(=O)OC(C)(C)C)[C@@H](CCCCN)C(=O)N(C)[C@@H](Cc1ccc(O)c(C(C)(C)C)c1)C(=O)NCCC(=O)O, DMF, 10.0 mM, 26.0 h, 2 steps) of 36%.

CN(C(=O)[C@H](Cc1ccc(F)cc1)NC(=O)OC(C)(C)C)[C@H]1CCCCNC(=O)CCNC(=O)[C@H](Cc2ccc(O)c(C(C)(C)C)c2)NC1=O gave a ring closure, yield of all isomers ([1]; from CN(C(=O)[C@H](Cc1ccc(F)cc1)NC(=O)OC(C)(C)C)[C@@H](CCCCN)C(=O)N[C@@H](Cc1ccc(O)c(C(C)(C)C)c1)C(=O)NCCC(=O)O, DMF, 10.1 mM, 18.0 h) of 69%.

In the case of CN(C(=O)[C@H](Cc1ccc(F)cc1)NC(=O)OC(C)(C)C)[C@H]1CCCCNC(=O)CNC(=O)[C@H](Cc2ccc(O)c(C(C)(C)C)c2)NC1=O, the ring closure, yield of all isomers ([1]; from CN(C(=O)[C@H](Cc1ccc(F)cc1)NC(=O)OC(C)(C)C)[C@@H](CCCCN)C(=O)N[C@@H](Cc1ccc(O)c(C(C)(C)C)c1)C(=O)NCC(=O)O, DMF, 10.75 mM, 23.0 h, 2 steps) is reported as 60%.

In the case of CN(C(=O)[C@H](Cc1ccccc1)NC(=O)OCc1ccccc1)[C@H]1CCCCNC(=O)CCNC(=O)[C@H](Cc2ccc(O)c(C(C)(C)C)c2)NC1=O, the ring closure, yield of all isomers ([1]; from CN(C(=O)[C@H](Cc1ccccc1)NC(=O)OCc1ccccc1)[C@@H](CCCCN)C(=O)N[C@@H](Cc1ccc(O)c(C(C)(C)C)c1)C(=O)NCCC(=O)O, DMF, 9.91 mM, 2 steps) is reported as 48%.

CN1CCC(=O)NCCCC[C@H](N(C)C(=O)[C@H](Cc2ccc(F)cc2)NC(=O)OC(C)(C)C)C(=O)N[C@@H](Cc2ccc(O)c(C(C)(C)C)c2)C1=O showed a ring closure, yield of all isomers ([1]; from CN(CCC(=O)O)C(=O)[C@H](Cc1ccc(O)c(C(C)(C)C)c1)NC(=O)[C@H](CCCCN)N(C)C(=O)[C@H](Cc1ccc(F)cc1)NC(=O)OC(C)(C)C, DMF, 10.3 mM, 16.0 h) of 60%.

Work on CN1CCCC[C@H](N(C)C(=O)[C@H](Cc2ccc(F)cc2)NC(=O)OC(C)(C)C)C(=O)N[C@@H](Cc2ccc(O)c(C(C)(C)C)c2)C(=O)NCCC1=O yielded a ring closure, yield of all isomers ([1]; from CNCCCC[C@@H](C(=O)N[C@@H](Cc1ccc(O)c(C(C)(C)C)c1)C(=O)NCCC(=O)O)N(C)C(=O)[C@H](Cc1ccc(F)cc1)NC(=O)OC(C)(C)C, DMF, 10.5 mM, 16.0 h) of 36%.

In the case of CN1CCC[C@H](N(C)C(=O)[C@H](Cc2ccc(F)cc2)NC(=O)OC(C)(C)C)C(=O)N[C@@H](Cc2ccc(O)c(C(C)(C)C)c2)C(=O)NCCCC1=O, the ring closure, yield of all isomers ([1]; from CNCCC[C@@H](C(=O)N[C@@H](Cc1ccc(O)c(C(C)(C)C)c1)C(=O)NCCCC(=O)O)N(C)C(=O)[C@H](Cc1ccc(F)cc1)NC(=O)OC(C)(C)C, DMF, 9.93 mM, 12.0 h, 2 steps) is reported as 60%.

Work on “2S-(2S,13S))-N-(8-acetyl-2-(3-tert-butyl-4-hydroxyphenylmethyl)-3,14-dioxo-1,4,8-triazacyclotetradec-13-yl)-2-tert-butoxycarbonylamino-3-(4-fluorophenyl)-N-methylpropionamide” yielded a ring closure, isolated yield ([2]; 14-membered ring, BOP/pyridine, DMF/pyridine 1:1, 9.9 mM) of 55%.

Work on CC(C)(C)c1cc(CC2NC(=O)C(NC(=O)C(N)Cc3ccccc3)CCCCNC(=O)CCNC2=O)ccc1O (stereo not drawn) [Comparative example, reference compound] (H-FK[Tyr(3-tBu)][βAla]; lactam 2-C; configuration not given here) yielded a Kb [3] of 63.1 nM and an IC50 (motilin receptors) of 10 nM.

Compound CN1CCC[C@H](N(C)C(=O)[C@@H](N)Cc2ccc(F)cc2)C(=O)N[C@@H](Cc2ccc(O)c(C(C)(C)C)c2)C(=O)NCCCC1=O [Example 9, (2S-(2S,13S))-2-amino-N-(2-(3-tert-butyl-4-hydroxyphenylmethyl)-9,N-dimethyl-1,4,9-triaza-3,8,14-trioxocyclotetradec-13-yl)-3-(4-fluorophenyl)propionamide] has an IC50 (motilin receptors) of 5.3 nM.

Compound “(2S-(2S,12S))-2-tert-butoxycarbonylamino-N-(2-(3-tert-butyl-4-hydroxyphenylmethyl)-1,4,8-triaza-3,7,13-trioxocyclotridec-12-yl)-3-(4-fluorophenyl)-N-methylpropionamide” has a ring closure, isolated yield ([2]; 13-membered ring, BOP/pyridine, DMF/pyridine 1:1, 10.75 mM, 2 steps) of 60%.

Work on “(2S-(2S,13S))-2-(tert-butoxycarbonylamino)-N-(2-(3-tert-butyl-4-hydroxyphenylmethyl)-8-methyl-1,4, 8-triaza-3,7,14-trioxocyclotetradec-13-yl)-3-(4-fluorophenyl)-N-methylpropionamide” yielded a ring closure, isolated yield ([2]; 14-membered ring, BOP/pyridine, DMF/pyridine 1:1, 10.5 mM) of 36%.

Compound “(2S-(2S,13S))-2-benzyloxycarbonylamino-N-(2-(3-tert-butyl-4-hydroxyphenylmethyl)-1,4,8-triaza-3,7,14-trioxocyclotetradec-13-yl)-3-phenyl-N-methylpropionamide” has a ring closure, isolated yield [2, 4] of 48%.

“(2S-(2S,13S))-2-tert-butoxycarbonylamino-N-(2-(3-tert-butyl-4-hydroxyphenylmethyl)-1,4,8-triaza-3,7,14-trioxocyclotetradec-13-yl)-3-(4-fluorophenyl)-N-methylpropionamide” gave a ring closure, isolated yield ([2]; 14-membered ring, BOP/pyridine, DMF/pyridine 1:1, 10.1 mM) of 69%.

Compound “(2S-(2S,13S))-2-tert-butoxycarbonylamino-N-(2-(3-tert-butyl-4-hydroxyphenylmethyl)-1-methyl-1,4,8-triaza-3,7,14-trioxocyclotetradec-13-yl)-3-(4-fluorophenyl)-N-methylpropionamide” has a ring closure, isolated yield ([2]; 14-membered ring, BOP/pyridine, DMF/pyridine 1:1, 10.0 mM, 2 steps) of 36%.

In the case of “(2S-(2S,13S))-2-tert-butoxycarbonylamino-N-(2-(3-tert-butyl-4-hydroxyphenylmethyl)-4-methyl-1,4,8-triaza-3,7,14-trioxocyclotetradec-13-yl)-3-(4-fluorophenyl)-N-methylpropionamide”, the ring closure, isolated yield ([2]; 14-membered ring, BOP/pyridine, DMF/pyridine 1:1, 10.3 mM) is reported as 60%.

Work on “(2S-(2S,13S))-2-tert-butoxycarbonylamino-N-(2-(3-tert-butyl-4-hydroxyphenylmethyl)-9-methyl-1,4,9-triaza-3,8,14-trioxocyclotetradec-13-yl)-3-(4-fluorophenyl)-N-methylpropionamide” yielded a ring closure, isolated yield [2, 4] of 60%.

Work on “(2S-(2S,13S))-N-(8-acetyl-2-(3-tert-butyl-4-hydroxyphenylmethyl)-3,14-dioxo-1,4,8-triazacyclotetradec-13-yl)-2-tert-butoxycarbonylamino-3-(4-fluorophenyl)-N-methylpropionamide” yielded a ring closure, isolated yield ([2]; 14-membered ring, BOP, DMF/pyridine 1:1, 9.9 mM) of 55%.

In the case of “(2S-(2S,14S))-2-(tert-butoxycarbonylamino)-N-(2-(3-tert-butyl-4-hydroxyphenylmethyl)-1,4,9-triaza-3,8,15-trioxocyclopentadec-14-yl)-3-(4-fluorophenyl)-N-methylpropionamide”, the ring closure, isolated yield ([2]; 15-membered ring, BOP/pyridine, DMF/pyridine 1:1, 10.1 mM) is reported as 82%.

Source: patent US7018981B2, “Cyclic motilin receptor antagonists” (Chugai Seiyaku Kabushiki Kaisha, priority 2000, dated 2006)
